Results on 2 compounds are retold here after US6781020B2, “Water soluble bactericide and producing method thereof” (VMC Co., Ltd., priority 2001, dated 2004).

The subject of series [1] is standard strain of Staphylococcus aureus. As to the kind of experiment: bactericidal ability test, development of bacteria after contact and overnight culture. It counts as cell-based. The note with it: ozone-oxidized glycerin of about 10 unit/g, cultured overnight at 37° C., FIG. 1.
Series [2] concerns standard strain of Escherichia coli. Described as above. It counts as cell-based. The settings on record: ozone-oxidized glycerin of about 10 unit/g, cultured overnight at 37° C., FIG. 1.
Series [3] deals with clinical isolated strain of Salmonella. The settings on record: ozone-oxidized glycerin of about 10 unit/g, cultured overnight at 37° C., FIG. 1.
For series [4], the system named is standard strain of Pseudomonas aeruginosa. In words: bactericidal ability test, development of bacteria after contact and overnight culture. It counts as cell-based. The settings on record: ozone-oxidized glycerin of about 10 unit/g, cultured overnight at 37° C., FIG. 1.
Another series deals with T1, catalase (Homo sapiens, UniProt P04040).
T1 sequence (P04040 1-527): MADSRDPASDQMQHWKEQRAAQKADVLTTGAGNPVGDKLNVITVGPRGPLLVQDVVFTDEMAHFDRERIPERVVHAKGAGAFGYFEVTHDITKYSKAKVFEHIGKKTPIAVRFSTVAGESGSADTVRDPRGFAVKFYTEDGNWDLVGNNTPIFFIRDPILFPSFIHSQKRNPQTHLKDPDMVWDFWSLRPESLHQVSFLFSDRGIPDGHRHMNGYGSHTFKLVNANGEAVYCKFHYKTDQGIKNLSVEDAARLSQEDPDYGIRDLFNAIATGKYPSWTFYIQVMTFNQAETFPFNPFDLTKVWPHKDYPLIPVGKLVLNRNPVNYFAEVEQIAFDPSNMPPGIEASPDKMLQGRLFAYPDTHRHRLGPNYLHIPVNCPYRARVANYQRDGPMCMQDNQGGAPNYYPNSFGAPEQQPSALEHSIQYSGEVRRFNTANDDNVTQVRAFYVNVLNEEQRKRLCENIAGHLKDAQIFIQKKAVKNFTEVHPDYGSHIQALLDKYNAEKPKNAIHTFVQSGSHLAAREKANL
In words: catalase test, oxidation ability in time sequence by potassium iodide titration. The format is physicochemical. The settings on record: catalase final concentration 0.003%.

The structures appear in SMILES notation.

As for `OCC(O)CO` [glycerin], the bactericidal effects result in series [1], in series [2], in series [3] and in series [4] was “not recognized” throughout.
For the compound `OO` [hydrogen peroxide], the “time until the oxidation ability almost disappeared” value at catalase (0.03% hydrogen peroxide solution, FIG. 8 left) amounted to 5 min. The “attenuation of the oxidation ability due to catalase” value on catalase (FIG. 8) was “rapidly attenuated”.
